The nature of data set [1]: Lethality in CD1 mice. Conditions: 50 μl of 200 μM, after 24 h.
For data set [2], the system named is p38 MAPK. The experiment in a line: Western blot signaling in human DCs: p38 MAPK. It is filed as cell-based. Conditions: 5 and 20 min treatment, FIG. 13A. As to the method: (§1) Human PBMC were isolated by Ficoll density gradient centrifugation from leukopacks supplied by the Department of Transfusion Medicine (Clinical Center, National Institute of Health, Bethesda, Md.). Monocytes were purified (>95%) from human PBMC with MACS CD14 monocyte isolation kit (Miltenyi Biotech Inc., Auburn, Calif.) according to the manufacturer's instruction. DCs were generated as described previously (Yang et al., 2001). In brief, DCs were generated by incubating purified monocytes at 2×10^5/ml in RPMI 1640 containing 10% FBS, 2 mM glutamine, 25 mM HEPES, 100 U/ml penicillin, 100 ug/ml streptomycin, 50 ng/ml recombinant human GM-CSF (PeproTech, Rocky Hill, N.J.), and 50 ng/ml recombinant human IL-4 (PeproTech) at 37° C. in a CO2 (5%) incubator for 7 days. On day 3 and 5 of the incubation, half of the culture medium was replaced with pre-warmed (37° C.) fresh GM-CSF- and IL-4-containing medium. On day 7, DCs were collected, washed three times with PBS, and serum-starved for 8 hours by incubating in serum-free RPMI-1640 containing GM-CSF and IL-4 (2×10^5/ml) at 37° C. in a CO2 (5%) incubator. Subsequently, DCs (2×10^6/sample) were incubated at 37° C. in the absence or presence of c-di-GMP or GMP (Sigma, St. Louis, Mo.) at concentrations specified for 5 or 30 minutes. […]
(In general: Immunoblotting shows a protein as a band on a membrane.)

The test system of data set [3] is autologous or allogeneic PBMC. Nature of the data set: Mixed leukocyte reaction with irradiated DCs ([3H]thymidine incorporation). The format is cell-based, human. Conditions: 100 μM c-di-GMP-treated immature DCs. How it is done: DCs were stimulated for 24 h with c-di-GMP or LPS and were then extensively washed and suspended in RPMI 1640 supplemented with 10% human serum, L-glutamine, and penicillin/streptomicin, irradiated (3,000 rad from a ^137Cs source) and added in graded doses to 1×10^5 responder T cells in 96 flat-bottom microplates. Responder cells were autologous or allogeneic PBMC. After 5 days, cultures were pulsed for 18 h with 0.5 µCi/well of [^3H]thymidine. Cells were then harvested onto glass fiber filters, and [^3H]thymidine incorporation was measured by liquid scintillation spectroscopy.
(Uptake of a labelled nucleoside into DNA is a usual measure of proliferation.)

For data set [4] the following is noted: pH 10.
Data set [5] has as its system ERK. The experiment in a line: Western blot signaling in human DCs: ERK. Conditions: data not shown. The format is cell-based. How it is done: as §1
Data set [6] has as its system human basophils. The experiment in a line: IL-3 dependent IL-13 secretion by human basophils. Particulars: under the conditions tested. It is filed as cell-based.
In data set [7] the test system is basophils. The experiment in a line: SOCS expression in basophils (real-time PCR). The format is cell-based, human. How it is done:
Whether or not cyclic dinucleotides affected induction of SOCS (Suppresser Of Cytokine Synthesis) expression in basophils treated with CDN's was then tested. […] Cells were treated for 18 h, total RNA isolated, and RT-PCR performed for SOCS-1, SOCS-3, and the HPRT housekeeping gene. The fact that cGpGp also induces SOCS-1 may explain why some inhibition of IL-3-induced IL-13 secretion is observed with this cyclic dinucleotide analog. […] In the current IL-13 assay, the cyclic dinucleotide is added simultaneously with IL-3. The TBDMS-cGpGp likely induces SOCS-1 expression faster and thus accounts for greater inhibition of IL-13. […] While modest inhibitory activity with cGpGp was observed, evidence that cGpGp induces SOCS-1 and sometimes better than TBDMS-cGpGp at this particular time point was observed. These differences might be explained by kinetics and it may be that SOCS gene expression would be higher following TBDMS-cGpGp treatment when examined at an earlier time point.

With `Nc1nc(=O)c2ncn([C@@H]3OC4COP(=O)(O)O[C@H]5[C@@H](O)[C@H](n6cnc7c(=O)nc(N)[nH]c76)O[C@@H]5COP(=O)(O)OC4C3O)c2[nH]1` (stereo partly drawn) [c-di-GMP, Bis(3′→5′)-cyclic diguanylic acid], the “lethality in CD1 mice” value in data set [1] was “non-lethal”. The “activation of p38 MAPK (phospho-p38)” value in data set [2] is “activated”. The “autologous T cell proliferation, increase compared to untreated DCs” value in data set [3] (FIG. 4A) is “five-fold”. In data set [3] (FIG. 4B), the “heterologous T cell proliferation, increase compared to untreated DCs” value is given as “two-fold”. For the same compound, the “stability at physiological conditions” value in data set [4] was “stable”. Further, in data set [5], the “activation of ERK” value is reported as “did not activate”. Besides, the “effect on IL-13 induced by IL-3” value in data set [6] is “essentially no inhibition”. Further, in data set [7], the “time of SOCS mRNA peak” value is reported as around 18 h. The “SOCS-1 mRNA” value in data set [7] (18 h treatment) is reported as “induced”.

The record behind these values is patent US7592326B2, “Method for stimulating the immune, inflammatory or neuroprotective response” (priority 2004, dated 2009).
